The test system of experiment [1] is B. burgdorferi. In words: Fixed or denatured B. burgdorferi imaging, flagellin costaining and CLEM. The experiment is classed as cell-based, Borrelia burgdorferi. As to the method: Bacterial cultures in logarithmic phase were washed and resuspended in phosphate-buffered saline (PBS). Suspension was added to a positively charged slide, and an equal volume of 3:1 methanol-acetic acid was added to the suspension for 5 min. Slides were washed with 0.01% Tween 20/PBS (PBS-T) followed by PBS. Ten percent nonfat dry milk/PBS blocking solution was added for 45 min. Slides were washed with PBS and incubated for 45 min with 1:500 flagellin antibody (Rockland 200-401-C14) diluted in 1% nonfat dry milk/PBS. Slides were washed with PBS-T and then incubated for 30 min with FITC-conjugated anti-rabbit (Invitrogen catalog number A11008; 1:500 dilution), containing 10 μM HS-198. […].
Correlative light electron microscopy (CLEM) was performed by Shannon Modla and Jeff Caplan at the bioimaging center of the Delaware Biotechnology Institute. Cells were attached to an Ibidi μ-dish containing an imprinted 500-μm cell location grid using 4% paraformaldehyde (PFA) for 20 min. Cells were then incubated with 10 μM HS-198 for 10 min followed by a PBS wash. PBS filled the dish to the top for transport to the Delaware Institute for further processing. The cells were then imaged using Zeiss 880 Airyscan. […]

A further experiment has as its target T1, B. burgdorferi HtpG (Borreliella burgdorferi, UniProt P42555).
T1 construct: His6 (N); made in house; host or cells: E. coli BL21(DE3)
In words: biochemical. Type of experiment: binding, Borrelia burgdorferi. Here is the method:
(§1) Escherichia coli (strain BL21/DE3) genomic DNA was isolated from a lab culture generated from the cloning/expression bacterium (ThermoFisher catalog no. EC0114) by overnight proteinase K digestion at 56°C, high-salt clarification, and ethanol precipitation. […] Human Hsp90-alpha sequences were derived from cDNA generated from total mRNA of the human breast epithelial line, MCF10A. HtpG DNA sequences were PCR cloned from these DNAs using primers designed to allow in-frame cloning with GFP in the isopropyl-β-D-thiogalactopyranoside (IPTG)-inducible bacterial expression vector. […] Fusion protein cloning was done using the ligation-independent cloning procedure via single-nucleotide T4 DNA polymerase treatment of vector and purified PCR products followed by annealing of complementary single-strand ends before transformation into DH5 E. coli. […] Fusion protein synthesis was induced by incubation with 1 mM IPTG or autoinduction ([17]).
(§2) γ-linked ATP Sepharose matrix was generated as described previously by the Haystead lab ([18]). […] The clarified lysate was added to a column containing ATP-bound Sepharose. The column was washed with low-salt buffer (150 mM NaCl, 25 mM HEPES, pH 7.4, 1 mM dithiothreitol [DTT], and 60 mM MgCl2), followed by high-salt buffer (1 M NaCl, 25 mM HEPES, pH 7.4, 1 mM DTT, 0.1% IGEPAL, and 60 mM MgCl2) and once again low-salt buffer to remove unbound protein. Next, the resin with bound proteins (50 μl) was transferred to a 0.2-μm polyvinylidene fluoride filter 96-well plate (Corning) sitting on top of a black flat-bottomed 96-well catch plate (Corning). […] The eluted proteins were measured in a fluorescent plate reader to detect the GFP.
Subtle single amino acid differences are present within the catalytic clefts of these proteins, especially between residues that contact the nucleotide. […] We therefore reasoned that these differences may be sufficient to design small molecules that can similarly discriminate HtpG of stealth organisms. To test this hypothesis, we utilized a fluorescent-linked enzyme chemoproteomic strategy (FLECS) assay to test known Hsp90 inhibitors ([18]) for binding to various HtpG constructs. First, we cloned and expressed in E. coli recombinant N-terminal GFP-fusion forms of HtpG from B. burgdorferi, E. coli, and Treponema denticola, the oral spirochete, as well as human Hsp90. We then incubated lysate after protein expression with an ATP Sepharose resin to enable binding. In this assay, ATP is tethered to Sepharose beads via its γ-phosphate, enabling the nucleotide to bind to ATP binding proteins such as Hsp90 and HtpG, but is nonhydrolyzable ([24]). After proteins are bound to the ATP Sepharose resin, small molecules with affinity for the ATP binding site will elute the GFP-fusion protein, which can readily be detected and quantified on a plate fluorometer.
These compounds were selected for testing based on their known binding to human Hsp90 ([25], [26]).

In experiment [2] the test system is B. burgdorferi. In words: In vivo mouse model of B. burgdorferi infection, imaging of tissue sections. Details: species or system mice. To be noted: 25 nmol via tail vein, 3 weeks after infection, 6 h postinjection; ear, tibiotarsal joint, spleen. As to the method:
Ten-micrometer sections of frozen tissues were incubated with WGA (Biotium catalog number 29077) for 1 h in PBS. Tissues were washed and fixed with 3:1 methanol to acetic acid. Slides were incubated with FITC-conjugated B. burgdorferi polyclonal antibody (ThermoFisher, catalog number PA1-73005) for 1 h at room temperature. Noninjected or infected tissues were washed and incubated with 1 μM HS-198 for 30 min as control, and injected tissues were not incubated with HS-198. Slides were washed and mounted with DAPI Prolong Gold. Image studies were performed on a Zeiss Axio Imager upright microscope, using 63× oil objective, and visible light for DIC imaging and excitation at 405, 488, or 633 nm for detection of DAPI, FITC, or HS-198, respectively. Images were analyzed using FIJI software.
Seven C3H/HeN (Charles River Laboratories) female mice, 36 to 42 days old, were anesthetized with isoflurane gas, 1.5 to 2%. Mice were infected with 500,000 logarithmic-stage B. burgdorferi strain N40 spirochetes in <0.5 ml sterile saline by subcutaneous injection in the nape of the neck via 25-gauge needle. The N40 strain was selected for its infection kinetics and inflammatory pathology. The strain was obtained from an archival stock acquired by the Philip lab and was maintained exactly like strain B31 ([21]). […]

Another experiment addresses human Hsp90 (Homo sapiens, UniProt P07900). In words: FLECS assay, elution of GFP-Hsp90 from ATP Sepharose. Conditions: in words. Details: His6 (N); made in house; host or cells: E. coli BL21(DE3). Type of experiment: binding. Here is the method: as §1, §2
Subtle single amino acid differences are present within the catalytic clefts of these proteins, especially between residues that contact the nucleotide. […] After proteins are bound to the ATP Sepharose resin, small molecules with affinity for the ATP binding site will elute the GFP-fusion protein, which can readily be detected and quantified on a plate fluorometer. […]

T1 sequence (P42555 whole entry): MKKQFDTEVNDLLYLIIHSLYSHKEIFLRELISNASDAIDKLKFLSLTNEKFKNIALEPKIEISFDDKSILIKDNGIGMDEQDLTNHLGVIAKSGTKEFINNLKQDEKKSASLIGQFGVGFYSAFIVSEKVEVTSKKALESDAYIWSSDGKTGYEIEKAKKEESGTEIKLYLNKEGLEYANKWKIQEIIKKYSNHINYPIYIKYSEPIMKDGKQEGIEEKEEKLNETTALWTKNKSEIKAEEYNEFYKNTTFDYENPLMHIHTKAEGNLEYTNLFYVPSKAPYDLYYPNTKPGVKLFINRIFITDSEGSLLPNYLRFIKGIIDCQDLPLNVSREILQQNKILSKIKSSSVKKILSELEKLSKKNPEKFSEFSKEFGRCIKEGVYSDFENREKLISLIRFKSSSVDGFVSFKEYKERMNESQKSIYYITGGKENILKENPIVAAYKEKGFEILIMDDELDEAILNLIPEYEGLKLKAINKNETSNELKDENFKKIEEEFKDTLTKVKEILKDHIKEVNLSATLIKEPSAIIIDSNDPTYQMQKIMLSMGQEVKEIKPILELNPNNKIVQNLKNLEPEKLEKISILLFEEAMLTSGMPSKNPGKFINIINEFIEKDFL

The Kd is a measure of binding affinity in units of concentration. As to `Cc1nn(-c2ccc(C(=O)N(C)C)c(NCCCOCCOCCOCCOCCOCCCNCc3ccc(C(=C\C=C4/N(CCCCS(=O)(=O)O)c5ccccc5C4(C)C)/C=C/C4=[N+](CCCCS(=O)(=O)[O-])c5ccccc5C4(C)C)cc3)c2)c2c1C(=O)CC(C)(C)C2` [HS-198], the “Localization within the spirochete” value with B. burgdorferi [1] (10 μM, flagellin antibody costaining, CLEM) is given as “accumulated inside the protoplasmic cylinder”. For the same compound, in the experiment with B. burgdorferi [1] (heat denaturation (5 min at 90°C or 15 min at 50°C) or alcohol fixation (2:1 ethanol), data not shown), the “Staining of denatured spirochetes” value is on record as “capable of staining spirochetes”. The compound further returned a Kd on B. burgdorferi HtpG of 5.6 ± 3 µM. Moreover, the “Elution of B. burgdorferi GFP-HtpG from ATP Sepharose beads” value on B. burgdorferi HtpG (in words) is on record as “selectively eluted the bound fusion protein”. Moreover, in the experiment on B. burgdorferi [2], the “Detection of B. burgdorferi in tissue sections of infected mice” value was “localization to sites of B. burgdorferi infection in mice”. The “Release of recombinant human GFP-Hsp90α from ATP Sepharose beads” value at human Hsp90 is reported as “did not”.
